Measurements reported in the supplement of paper PMC10307832.

Tests used:
Assay in all cases: relative viability (nuclei count vs DMSO), 5 days (fraction); higher = more cells survive
A-427 = test system: A-427
Outline: (§1)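 Relative viability is defined as nuclei in treated wells over nuclei in vehicle wells. Duplicate plates were run and medians reported. Lung cancer cell lines in 1536-well plates were dosed by pin tool one day after seeding, with one drug or with a fixed anchor-drug dose plus five library-drug doses (not always all listed) in √10 steps, and nuclei were counted after 5 days.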

HCC-15 = test system: HCC-15
Outline: as §1

HCC-78 = test system: HCC-78
Outline: as §1

HOP-62 = test system: HOP-62
Outline: as §1

LC-2-ad = test system: LC-2-ad
Outline: as §1

LXF-289 = test system: LXF-289
Outline: as §1

NCI-H1734 = test system: NCI-H1734
Outline: as §1

NCI-H1755 = test system: NCI-H1755
Outline: as §1

NCI-H1792 = test system: NCI-H1792
Outline: as §1

NCI-H1915 = test system: NCI-H1915
Outline: as §1

NCI-H1975 = test system: NCI-H1975
Outline: as §1

NCI-H2126 = test system: NCI-H2126
Outline: as §1

NCI-H2228 = test system: NCI-H2228
Outline: as §1

NCI-H2347 = test system: NCI-H2347
Outline: as §1

NCI-H647 = test system: NCI-H647
Outline: as §1

PC-3 [JPC-3] = test system: PC-3 [JPC-3]
Outline: as §1

RERF-LC-KJ = test system: RERF-LC-KJ
Outline: as §1

SK-LU-1 = test system: SK-LU-1
Outline: as §1

SW 1573 = test system: SW 1573
Outline: as §1

With `COc1cc2nccc(Oc3ccc(NC(=O)Nc4cc(C)on4)c(Cl)c3)c2cc1OC` [Tivozanib] + CC1(C)CCC(c2ccc(Cl)cc2)=C(CN2CCN(c3ccc(C(=O)NS(=O)(=O)c4ccc(N[C@H](CCN5CCOCC5)CSc5ccccc5)c(S(=O)(=O)C(F)(F)F)c4)cc3)CC2)C1 [Navitoclax] (partner 0.5 µM) the relative viability (A-427; first compound 0.005 µM) was 0.924, the relative viability (A-427; first compound 0.01581 µM) was 0.989 and the relative viability (A-427; first compound 0.05 µM) was 0.988. It also gave a relative viability (A-427; first compound 0.1581 µM) of 0.737, a relative viability (A-427; first compound 0.5 µM) of 1.03 and a relative viability (HCC-15; first compound 0.005 µM) of 0.719. The relative viability (HCC-15; first compound 0.01581 µM) was 0.676, the relative viability (HCC-15; first compound 0.05 µM) was 0.67 and the relative viability (HCC-15; first compound 0.1581 µM) was 0.742. It also gave a relative viability (HCC-15; first compound 0.5 µM) of 0.728, a relative viability (HCC-78; first compound 0.005 µM) of 0.656 and a relative viability (HCC-78; first compound 0.01581 µM) of 0.808. For the same compound, the relative viability (HCC-78; first compound 0.05 µM) was 0.765, the relative viability (HCC-78; first compound 0.1581 µM) was 0.756 and the relative viability (HCC-78; first compound 0.5 µM) was 0.677. The relative viability (HOP-62; first compound 0.005 µM) was 0.996, the relative viability (HOP-62; first compound 0.01581 µM) was 1.08 and the relative viability (HOP-62; first compound 0.05 µM) was 1.07. For the same compound, the relative viability (HOP-62; first compound 0.1581 µM) was 1.12, the relative viability (HOP-62; first compound 0.5 µM) was 0.844 and the relative viability (LC-2-ad; first compound 0.005 µM) was 0.35. The relative viability (LC-2-ad; first compound 0.01581 µM) was 0.48, the relative viability (LC-2-ad; first compound 0.05 µM) was 0.535 and the relative viability (LC-2-ad; first compound 0.1581 µM) was 0.448. For the same compound, the relative viability (LC-2-ad; first compound 0.5 µM) was 0.427, the relative viability (LXF-289; first compound 0.005 µM) was 0.916 and the relative viability (LXF-289; first compound 0.01581 µM) was 0.942. It also gave a relative viability (LXF-289; first compound 0.05 µM) of 0.915, a relative viability (LXF-289; first compound 0.1581 µM) of 1.01 and a relative viability (LXF-289; first compound 0.5 µM) of 0.926. For the same compound, the relative viability (NCI-H1734; first compound 0.005 µM) was 0.865, the relative viability (NCI-H1734; first compound 0.01581 µM) was 0.804 and the relative viability (NCI-H1734; first compound 0.05 µM) was 0.823. The relative viability (NCI-H1734; first compound 0.1581 µM) was 0.734, the relative viability (NCI-H1734; first compound 0.5 µM) was 0.82 and the relative viability (NCI-H1755; first compound 0.005 µM) was 0.953. For the same compound, the relative viability (NCI-H1755; first compound 0.01581 µM) was 0.949, the relative viability (NCI-H1755; first compound 0.05 µM) was 1.01 and the relative viability (NCI-H1755; first compound 0.1581 µM) was 0.932. It also gave a relative viability (NCI-H1755; first compound 0.5 µM) of 0.916, a relative viability (NCI-H1792; first compound 0.005 µM) of 0.657 and a relative viability (NCI-H1792; first compound 0.01581 µM) of 0.638. The relative viability (NCI-H1792; first compound 0.05 µM) was 0.657, the relative viability (NCI-H1792; first compound 0.1581 µM) was 0.505 and the relative viability (NCI-H1792; first compound 0.5 µM) was 0.849. The relative viability (NCI-H1915; first compound 0.005 µM) was 0.756, the relative viability (NCI-H1915; first compound 0.01581 µM) was 0.765 and the relative viability (NCI-H1915; first compound 0.05 µM) was 0.806. For the same compound, the relative viability (NCI-H1915; first compound 0.1581 µM) was 0.838, the relative viability (NCI-H1915; first compound 0.5 µM) was 0.771 and the relative viability (NCI-H1975; first compound 0.005 µM) was 1.1. For the same compound, the relative viability (NCI-H1975; first compound 0.01581 µM) was 1.19, the relative viability (NCI-H1975; first compound 0.05 µM) was 1.09 and the relative viability (NCI-H1975; first compound 0.1581 µM) was 1.06. It also gave a relative viability (NCI-H1975; first compound 0.5 µM) of 0.884, a relative viability (NCI-H2126; first compound 0.005 µM) of 0.842 and a relative viability (NCI-H2126; first compound 0.01581 µM) of 0.818. For the same compound, the relative viability (NCI-H2126; first compound 0.05 µM) was 0.963, the relative viability (NCI-H2126; first compound 0.1581 µM) was 0.635 and the relative viability (NCI-H2126; first compound 0.5 µM) was 0.857. The relative viability (NCI-H2228; first compound 0.005 µM) was 1.03, the relative viability (NCI-H2228; first compound 0.01581 µM) was 0.891 and the relative viability (NCI-H2228; first compound 0.05 µM) was 0.754. The relative viability (NCI-H2228; first compound 0.1581 µM) was 0.9, the relative viability (NCI-H2228; first compound 0.5 µM) was 1.24 and the relative viability (NCI-H2347; first compound 0.005 µM) was 0.735. For the same compound, the relative viability (NCI-H2347; first compound 0.01581 µM) was 0.765, the relative viability (NCI-H2347; first compound 0.05 µM) was 0.847 and the relative viability (NCI-H2347; first compound 0.1581 µM) was 0.735. It also gave a relative viability (NCI-H2347; first compound 0.5 µM) of 0.804, a relative viability (NCI-H647; first compound 0.005 µM) of 1.12 and a relative viability (NCI-H647; first compound 0.01581 µM) of 1.24. For the same compound, the relative viability (NCI-H647; first compound 0.05 µM) was 1.21, the relative viability (NCI-H647; first compound 0.1581 µM) was 1.19 and the relative viability (NCI-H647; first compound 0.5 µM) was 1.03. The relative viability (PC-3 [JPC-3]; first compound 0.005 µM) was 0.735, the relative viability (PC-3 [JPC-3]; first compound 0.01581 µM) was 0.87 and the relative viability (PC-3 [JPC-3]; first compound 0.05 µM) was 0.772. For the same compound, the relative viability (PC-3 [JPC-3]; first compound 0.1581 µM) was 0.788, the relative viability (PC-3 [JPC-3]; first compound 0.5 µM) was 0.809 and the relative viability (RERF-LC-KJ; first compound 0.005 µM) was 0.872. The relative viability (RERF-LC-KJ; first compound 0.01581 µM) was 0.828, the relative viability (RERF-LC-KJ; first compound 0.05 µM) was 1.13 and the relative viability (RERF-LC-KJ; first compound 0.1581 µM) was 1.37. The relative viability (RERF-LC-KJ; first compound 0.5 µM) was 1.07, the relative viability (SK-LU-1; first compound 0.005 µM) was 0.837 and the relative viability (SK-LU-1; first compound 0.01581 µM) was 0.862. The relative viability (SK-LU-1; first compound 0.05 µM) was 1.1, the relative viability (SK-LU-1; first compound 0.1581 µM) was 0.666 and the relative viability (SK-LU-1; first compound 0.5 µM) was 0.806. It also gave a relative viability (SW 1573; first compound 0.005 µM) of 0.92, a relative viability (SW 1573; first compound 0.01581 µM) of 0.911 and a relative viability (SW 1573; first compound 0.05 µM) of 0.949. The relative viability (SW 1573; first compound 0.1581 µM) was 0.777 and the relative viability (SW 1573; first compound 0.5 µM) was 0.983.
